The target in this assay is ER (Homo sapiens (Human), UniProt P03372). Nature of the assay: Western blot analysis (Compounds B1-B278). Format: cell-based. The note with it: ER degradation by traditional Western blot; DC50 classes. How it is done: Western Blot Analysis. The cells that are treated with the compounds are lysed in Radioimmunoprecipitation Assay Protein Lysis and Extraction Buffer (e.g., 25 mmol/L Tris.HCl, pH 7.6, 150 mmol/L NaCl, 1% Nonidet P-40, 1% sodium deoxycholate, and 0.1% sodium dodecyl sulfate) containing proteinase inhibitor cocktail. Equal amounts of total protein are electrophoresed through 10% SDS-polyacrylamide gels after determination of protein concentration by BCA assay. The separated protein bands are transferred onto PVDF membranes and blotted against different antibodies. The blots are scanned, and the band intensities are quantified (e.g., by using GelQuant.NET software provided by biochemlabsolutions.com). The relative mean intensity of target proteins is expressed after normalization to the intensity of glyceraldehyde-3-phosphate dehydrogenase bands.
Chain of ER (P03372 whole entry): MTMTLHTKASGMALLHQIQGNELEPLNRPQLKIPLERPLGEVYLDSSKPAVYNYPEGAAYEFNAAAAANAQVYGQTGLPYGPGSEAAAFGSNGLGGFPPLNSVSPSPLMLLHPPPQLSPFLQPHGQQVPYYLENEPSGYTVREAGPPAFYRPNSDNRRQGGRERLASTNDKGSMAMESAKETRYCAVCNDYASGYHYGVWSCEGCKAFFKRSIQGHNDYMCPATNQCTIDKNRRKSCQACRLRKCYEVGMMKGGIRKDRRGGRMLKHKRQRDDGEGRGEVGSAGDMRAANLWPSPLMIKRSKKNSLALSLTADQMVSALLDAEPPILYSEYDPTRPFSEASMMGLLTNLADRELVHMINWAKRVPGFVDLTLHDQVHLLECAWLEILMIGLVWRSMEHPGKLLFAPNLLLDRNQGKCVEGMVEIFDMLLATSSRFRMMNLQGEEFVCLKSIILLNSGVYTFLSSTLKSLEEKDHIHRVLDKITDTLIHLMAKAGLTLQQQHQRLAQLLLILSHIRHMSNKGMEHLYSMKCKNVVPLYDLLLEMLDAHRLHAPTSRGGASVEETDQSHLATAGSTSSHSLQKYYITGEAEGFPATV
Western Blot Analysis. Western blot analysis was performed essentially as described previously. The cells treated with indicated compounds were lysed in Radioimmunoprecipitation Assay Protein Lysis and Extraction Buffer (25 mmol/L Tris.HCl, pH 7.6, 150 mmol/L NaCl, 1% Nonidet P-40, 1% sodium deoxycholate, and 0.1% sodium dodecyl sulfate) containing proteinase inhibitor cocktail (Roche Diagnostics, Mannheim, Germany). Equal amounts of total protein were electrophoresed through 10% SDS-polyacrylamide gels after determination of protein concentration by BCA assay (Fisher Scientific, Pittsburgh, PA). The separated protein bands were transferred onto PVDF membranes (GE Healthcare Life Sciences, Marlborough, MA) and blotted against different antibodies, as indicated. The blots were scanned, and the band intensities were quantified using GelQuant.NET software provided by biochemlabsolutions.com. The relative mean intensity of target proteins was expressed after normalization to the intensity of glyceraldehyde-3-phosphate dehydrogenase bands.
(In western blotting, separated proteins are transferred to a membrane and probed.)

14 compounds from patent US20260007681A1, “INDOLE DERIVATIVES AS ESTROGEN RECEPTOR DEGRADERS” (REGENTS OF THE UNIVERSITY OF MICHIGAN, priority 2022, published 2026) can be followed below.

`C[C@@H]1Cc2c([nH]c3ccccc23)[C@@H](c2c(F)cc(N3CCC(N4CCN(CC(=O)N5Cc6cc7c(cc6C5)C(=O)N(C5CCC(=O)NC5=O)C7=O)CC4)CC3)cc2F)N1CC(F)F` (stereo partly drawn) [Compound B35, 6-(2-(4-(1-(4-((1R,3R)-2-(2,2-difluoroethyl)-3-methyl-2,3,4,9-tetrahydro-1H-pyrido[3,4-b]indol-1-yl)-3,5-difluorophenyl)piperidin-4-yl)piperazin-1-yl)acetyl)-2-(2,6-dioxopiperidin-3-yl)-6,7-dihydropyrrolo[3,4-f]isoindole-1,3(2H,5H)-dione]: the “Traditional Western Degradation Potency” value is given as “A (“A”: <10 nM)”. As for `C[C@@H]1Cc2c([nH]c3ccccc23)[C@@H](c2c(F)cc(N3CCC(N4CCN(CC(=O)N5Cc6cc7c(cc6C5)C(=O)N(C5CCC(=O)NC5=O)C7)CC4)CC3)cc2F)N1CC(F)F` (stereo partly drawn) [Compound B36, 3-(6-(2-(4-(1-(4-((1R,3R)-2-(2,2-difluoroethyl)-3-methyl-2,3,4,9-tetrahydro-1H-pyrido[3,4-b]indol-1-yl)-3,5-difluorophenyl)piperidin-4-yl)piperazin-1-yl)acetyl)-1-oxo-3,5,6,7-tetrahydropyrrolo[3,4-f]isoindol-2(1H)-yl)piperidine-2,6-dione], the “Traditional Western Degradation Potency” value is “A (“A”: <10 nM)”. Take `C[C@@H]1Cc2c([nH]c3ccccc23)[C@@H](c2c(F)cc(N3CC4(CCN(CC(=O)N5Cc6cc7c(cc6C5)C(=O)N(C5CCC(=O)NC5=O)C7=O)CC4)C3)cc2F)N1CC(F)F` (stereo partly drawn) [Compound B37, 6-(2-(2-(4-((1R,3R)-2-(2,2-difluoroethyl)-3-methyl-2,3,4,9-tetrahydro-1H-pyrido[3,4-b]indol-1-yl)-3,5-difluorophenyl)-2,7-diazaspiro[3.5]nonan-7-yl)acetyl)-2-(2,6-dioxopiperidin-3-yl)-6,7-dihydropyrrolo[3,4-f]isoindole-1,3(2H,5H)-dione]: the “Traditional Western Degradation Potency” value is “B (“B”: 10-100 nM)”. Take `C[C@@H]1Cc2c([nH]c3ccccc23)[C@@H](c2c(F)cc(N3CC4(CCN(CC(=O)N5Cc6cc7c(cc6C5)C(=O)N(C5CCC(=O)NC5=O)C7)CC4)C3)cc2F)N1CC(F)F` (stereo partly drawn) [Compound B38, 3-(6-(2-(2-(4-((1R,3R)-2-(2,2-difluoroethyl)-3-methyl-2,3,4,9-tetrahydro-1H-pyrido[3,4-b]indol-1-yl)-3,5-difluorophenyl)-2,7-diazaspiro[3.5]nonan-7-yl)acetyl)-1-oxo-3,5,6,7-tetrahydropyrrolo[3,4-f]isoindol-2(1H)-yl)piperidine-2,6-dione]: the “Traditional Western Degradation Potency” value was “A (“A”: <10 nM)”. To `C[C@@H]1Cc2c([nH]c3ccccc23)[C@@H](c2c(F)cc(N3CCC4(CC3)CC(C(=O)N3CCC(CN5Cc6cc7c(cc6C5)C(=O)N(C5CCC(=O)NC5=O)C7=O)CC3)C4)cc2F)N1CC(F)F` (stereo partly drawn) [Compound B39, 6-((1-(7-(4-((1R,3R)-2-(2,2-difluoroethyl)-3-methyl-2,3,4,9-tetrahydro-1H-pyrido[3,4-b]indol-1-yl)-3,5-difluorophenyl)-7-azaspiro[3.5]nonane-2-carbonyl)piperidin-4-yl)methyl)-2-(2,6-dioxopiperidin-3-yl)-6,7-dihydropyrrolo[3,4-f]isoindole-1,3(2H,5H)-dione] belongs “B (“B”: 10-100 nM)”; to `C[C@@H]1Cc2c([nH]c3ccccc23)[C@@H](c2c(F)cc(N3CCC4(CC3)CC(C(=O)N3CCC(N5Cc6cc7c(cc6C5)C(=O)N(C5CCC(=O)NC5=O)C7=O)CC3)C4)cc2F)N1CC(F)F` (stereo partly drawn) [Compound B40, 6-(1-(7-(4-((1R,3R)-2-(2,2-difluoroethyl)-3-methyl-2,3,4,9-tetrahydro-1H-pyrido[3,4-b]indol-1-yl)-3,5-difluorophenyl)-7-azaspiro[3.5]nonane-2-carbonyl)piperidin-4-yl)-2-(2,6-dioxopiperidin-3-yl)-6,7-dihydropyrrolo[3,4-f]isoindole-1,3(2H,5H)-dione], “A (“A”: <10 nM)”. As to `C[C@@H]1Cc2c([nH]c3ccccc23)[C@@H](c2c(F)cc(N3CCC4(CC3)CC(C(=O)N3CCC(N5Cc6cc7c(cc6C5)C(=O)N(C5CCC(=O)NC5=O)C7)CC3)C4)cc2F)N1CC(F)F` (stereo partly drawn) [Compound B41, 3-(6-(1-(7-(4-((1R,3R)-2-(2,2-difluoroethyl)-3-methyl-2,3,4,9-tetrahydro-1H-pyrido[3,4-b]indol-1-yl)-3,5-difluorophenyl)-7-azaspiro[3.5]nonane-2-carbonyl)piperidin-4-yl)-1-oxo-3,5,6,7-tetrahydropyrrolo[3,4-f]isoindol-2(1H)-yl)piperidine-2,6-dione], the “Traditional Western Degradation Potency” value is “A (“A”: <10 nM)”. For the compound `C[C@@H]1Cc2c([nH]c3ccccc23)[C@@H](c2c(F)cc(N3CC(CC(=O)N4Cc5cc6c(cc5C4)C(=O)N(C4CCC(=O)NC4=O)C6)C3)cc2F)N1CC(F)F` (stereo partly drawn) [Compound B42, 3-(6-(2-(1-(4-((1R,3R)-2-(2,2-difluoroethyl)-3-methyl-2,3,4,9-tetrahydro-1H-pyrido[3,4-b]indol-1-yl)-3,5-difluorophenyl)azetidin-3-yl)acetyl)-1-oxo-3,5,6,7-tetrahydropyrrolo[3,4-f]isoindol-2(1H)-yl)piperidine-2,6-dione], the “Traditional Western Degradation Potency” value is given as “C (“C”: >100 nM)”. As to `C[C@@H]1Cc2c([nH]c3ccccc23)[C@@H](c2c(F)cc(N3CC(CC(=O)N4CC(N5Cc6cc7c(cc6C5)C(=O)N(C5CCC(=O)NC5=O)C7)C4)C3)cc2F)N1CC(F)F` (stereo partly drawn) [Compound B43, 3-(6-(1-(2-(1-(4-((1R,3R)-2-(2,2-difluoroethyl)-3-methyl-2,3,4,9-tetrahydro-1H-pyrido[3,4-b]indol-1-yl)-3,5-difluorophenyl)azetidin-3-yl)acetyl)azetidin-3-yl)-1-oxo-3,5,6,7-tetrahydropyrrolo[3,4-f]isoindol-2(1H)-yl)piperidine-2,6-dione], the “Traditional Western Degradation Potency” value is listed as “B (“B”: 10-100 nM)”. As to `C[C@@H]1Cc2c([nH]c3ccccc23)[C@@H](c2c(F)cc(N3CCC(CC(=O)N4Cc5cc6c(cc5C4)C(=O)N(C4CCC(=O)NC4=O)C6)CC3)cc2F)N1CC(F)F` (stereo partly drawn) [Compound B44, 3-(6-(2-(1-(4-((1R,3R)-2-(2,2-difluoroethyl)-3-methyl-2,3,4,9-tetrahydro-1H-pyrido[3,4-b]indol-1-yl)-3,5-difluorophenyl)piperidin-4-yl)acetyl)-1-oxo-3,5,6,7-tetrahydropyrrolo[3,4-f]isoindol-2(1H)-yl)piperidine-2,6-dione], the “Traditional Western Degradation Potency” value is reported as “C (“C”: >100 nM)”. With `C[C@@H]1Cc2c([nH]c3ccccc23)[C@@H](c2c(F)cc(N3CC4(CCCN(CC(=O)N5Cc6cc7c(cc6C5)C(=O)N(C5CCC(=O)NC5=O)C7=O)C4)C3)cc2F)N1CC(F)F` (stereo partly drawn) [Compound B45, 6-(2-(2-(4-((1R,3R)-2-(2,2-difluoroethyl)-3-methyl-2,3,4,9-tetrahydro-1H-pyrido[3,4-b]indol-1-yl)-3,5-difluorophenyl)-2,6-diazaspiro[3.5]nonan-6-yl)acetyl)-2-(2,6-dioxopiperidin-3-yl)-6,7-dihydropyrrolo[3,4-f]isoindole-1,3(2H,5H)-dione], the “Traditional Western Degradation Potency” value was “C (“C”: >100 nM)”. For `C[C@@H]1Cc2c([nH]c3ccccc23)[C@@H](c2c(F)cc(N3CC4(CCCN(CC(=O)N5Cc6cc7c(cc6C5)C(=O)N(C5CCC(=O)NC5=O)C7)C4)C3)cc2F)N1CC(F)F` (stereo partly drawn) [Compound B46, 3-(6-(2-(2-(4-((1R,3R)-2-(2,2-difluoroethyl)-3-methyl-2,3,4,9-tetrahydro-1H-pyrido[3,4-b]indol-1-yl)-3,5-difluorophenyl)-2,6-diazaspiro[3.5]nonan-6-yl)acetyl)-1-oxo-3,5,6,7-tetrahydropyrrolo[3,4-f]isoindol-2(1H)-yl)piperidine-2,6-dione] the value was “B (“B”: 10-100 nM)”; for `C[C@@H]1Cc2c([nH]c3ccccc23)[C@@H](c2c(F)cc(N3CCC4(CCN(CC(=O)N5Cc6cc7c(cc6C5)C(=O)N(C5CCC(=O)NC5=O)C7=O)CC4)C3)cc2F)N1CC(F)F` (stereo partly drawn) [Compound B47, 6-(2-(2-(4-((1R,3R)-2-(2,2-difluoroethyl)-3-methyl-2,3,4,9-tetrahydro-1H-pyrido[3,4-b]indol-1-yl)-3,5-difluorophenyl)-2,8-diazaspiro[4.5]decan-8-yl)acetyl)-2-(2,6-dioxopiperidin-3-yl)-6,7-dihydropyrrolo[3,4-f]isoindole-1,3(2H,5H)-dione], “A (“A”: <10 nM)”. Turning to `C[C@@H]1Cc2c([nH]c3ccccc23)[C@@H](c2c(F)cc(N3CCC4(CCN(CC(=O)N5Cc6cc7c(cc6C5)C(=O)N(C5CCC(=O)NC5=O)C7)CC4)C3)cc2F)N1CC(F)F` (stereo partly drawn) [Compound B48, 3-(6-(2-(2-(4-((1R,3R)-2-(2,2-difluoroethyl)-3-methyl-2,3,4,9-tetrahydro-1H-pyrido[3,4-b]indol-1-yl)-3,5-difluorophenyl)-2,8-diazaspiro[4.5]decan-8-yl)acetyl)-1-oxo-3,5,6,7-tetrahydropyrrolo[3,4-f]isoindol-2(1H)-yl)piperidine-2,6-dione], the “Traditional Western Degradation Potency” value is reported as “A (“A”: <10 nM)”.
